# Laboratory results: patent publication US20220002314A1 (priority 2018, published 2022)
# Read-outs that look alike come from different tables or passages of the source.
# Experiments:
# [1] = biological target: Human α2δ-1 subunit of Cav2.2 calcium channel (Homo sapiens, UniProt P54289); test: biochemical; assay type: binding
# Human μ-opioid receptor = Human μ-opioid receptor (Homo sapiens, UniProt P35372); test: biochemical; assay type: binding
# [2] = binding to α2δ-1 subunit of voltage-gated calcium channels expressed as Ki, + also Ki>5000 nM or inhibition between 1% and 50%, read-out: α2δ-1 binding
# Chain of Human μ-opioid receptor (P35372 whole entry): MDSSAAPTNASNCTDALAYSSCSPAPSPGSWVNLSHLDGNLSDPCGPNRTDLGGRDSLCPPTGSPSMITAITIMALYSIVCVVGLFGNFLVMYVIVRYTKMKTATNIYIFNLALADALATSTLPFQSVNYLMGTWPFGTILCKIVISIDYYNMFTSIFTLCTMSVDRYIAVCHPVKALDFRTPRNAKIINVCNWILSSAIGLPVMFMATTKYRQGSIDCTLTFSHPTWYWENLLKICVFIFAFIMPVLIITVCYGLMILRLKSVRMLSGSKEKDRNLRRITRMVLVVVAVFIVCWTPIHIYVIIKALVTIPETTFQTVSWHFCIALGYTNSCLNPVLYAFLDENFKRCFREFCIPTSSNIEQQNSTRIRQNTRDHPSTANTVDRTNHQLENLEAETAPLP
# Chain of Human α2δ-1 subunit of Cav2.2 calcium channel (P54289 25-1103): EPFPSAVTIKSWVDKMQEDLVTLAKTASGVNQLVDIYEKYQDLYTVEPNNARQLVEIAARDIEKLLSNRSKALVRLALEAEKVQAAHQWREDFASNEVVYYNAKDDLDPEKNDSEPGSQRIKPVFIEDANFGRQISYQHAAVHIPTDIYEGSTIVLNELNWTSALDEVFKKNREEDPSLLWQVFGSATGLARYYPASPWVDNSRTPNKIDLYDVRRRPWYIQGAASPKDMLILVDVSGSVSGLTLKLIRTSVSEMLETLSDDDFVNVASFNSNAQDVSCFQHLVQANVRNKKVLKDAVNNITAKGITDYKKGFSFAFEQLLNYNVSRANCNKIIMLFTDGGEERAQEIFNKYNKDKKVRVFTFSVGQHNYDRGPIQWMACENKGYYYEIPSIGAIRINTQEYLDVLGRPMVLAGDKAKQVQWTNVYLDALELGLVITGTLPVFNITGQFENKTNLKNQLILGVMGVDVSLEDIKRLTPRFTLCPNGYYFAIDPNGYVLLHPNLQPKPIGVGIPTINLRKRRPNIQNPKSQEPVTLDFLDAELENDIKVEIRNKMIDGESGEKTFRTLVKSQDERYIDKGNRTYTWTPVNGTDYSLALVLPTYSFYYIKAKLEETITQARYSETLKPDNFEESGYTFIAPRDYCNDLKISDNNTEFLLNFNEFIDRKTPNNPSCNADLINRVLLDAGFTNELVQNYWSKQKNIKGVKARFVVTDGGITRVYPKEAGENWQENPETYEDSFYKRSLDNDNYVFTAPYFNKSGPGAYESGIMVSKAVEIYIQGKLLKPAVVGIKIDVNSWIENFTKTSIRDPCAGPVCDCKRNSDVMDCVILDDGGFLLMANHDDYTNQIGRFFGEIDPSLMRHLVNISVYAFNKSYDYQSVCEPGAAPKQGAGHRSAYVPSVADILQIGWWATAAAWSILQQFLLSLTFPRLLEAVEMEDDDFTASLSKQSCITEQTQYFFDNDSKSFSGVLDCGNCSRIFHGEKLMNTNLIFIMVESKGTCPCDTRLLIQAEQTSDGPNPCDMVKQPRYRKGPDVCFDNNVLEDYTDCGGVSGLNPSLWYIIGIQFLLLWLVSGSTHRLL
SMILES,Ki [1],Ki (Human μ-opioid receptor),also measured
"CCCC(c1nc2ccccc2c(=O)n1CCN(C)C)N1C[C@@H](C)N[C@@H](C)C1 (stereo partly drawn) [Example 128, 3-(2-(Dimethylamino)ethyl)-2-(1-((3S,5R)-3,5-dimethylpiperazin-1-yl)butyl)quinazolin-4(3H)-one]",,,Ki ([1]; read-out: α2δ-1 binding): 500 to 5000 nM; Ki (Human μ-opioid receptor; read-out: μ-binding): > 500 nM
"CCCC(c1nc2ccccc2c(=O)n1CCN(C)CCc1ccccc1)N1C[C@@H](C)N[C@@H](C)C1 (stereo partly drawn) [Example 129, 2-(1-((3S,5R)-3,5-dimethylpiperazin-1-yl)butyl)-3-(2-(methyl(phenethyl)amino)ethyl)quinazolin-4(3H)-one]",,,Ki ([1]; read-out: α2δ-1 binding): 500 to 5000 nM; Ki (Human μ-opioid receptor; read-out: μ-binding): > 500 nM
"CCCC(c1nc2ccccc2c(=O)n1CCN(C)CCCc1ccccc1)N1C[C@@H](C)N[C@@H](C)C1 (stereo partly drawn) [Example 130, 2-(1-((3S,5R)-3,5-dimethylpiperazin-1-yl)butyl)-3-(2-(methyl(3-phenylpropyl)amino)ethyl)quinazolin-4(3H)-one]",,,Ki ([1]; read-out: α2δ-1 binding): 500 to 5000 nM; Ki (Human μ-opioid receptor; read-out: μ-binding): > 500 nM
"CCCC(c1nc2ccccc2c(=O)n1CCN(C)C)N1C[C@@H](C)N(C)[C@@H](C)C1 (stereo partly drawn) [Example 131, 3-(2-(Dimethylamino)ethyl)-2-(1-((3S,5R)-3,4,5-trimethylpiperazine-1-yl)butyl)quinazolin-4(3H)-one]",,,Ki ([1]; read-out: α2δ-1 binding): > 5000 nM; Ki (Human μ-opioid receptor; read-out: μ-binding): > 500 nM
"CCCC(c1nc2ccc(-c3ccncc3)cc2c(=O)n1CC)N1C[C@@H](C)N[C@@H](C)C1 (stereo partly drawn) [Example 132, 2-(1-((3S,5R)-3,5-Dimethylpiperazin-1-yl)butyl)-3-ethyl-6-(pyridin-4-yl)quinazolin-4(3H)-one]",< 500 nM,> 500 nM,
"CCCC(c1nc2cc(-c3ccncc3)ccc2c(=O)n1CC)N1C[C@@H](C)N[C@@H](C)C1 (stereo partly drawn) [Example 133, 2-(1-((3S,5R)-3,5-dimethylpiperazin-1-yl)butyl)-3-ethyl-7-(pyridin-4-yl)quinazolin-4(3H)-one]",< 500 nM,> 500 nM,
"CCCC(c1nc2cc(-c3cccc(O)c3)ccc2c(=O)n1CC)N1C[C@@H](C)N[C@@H](C)C1 (stereo partly drawn) [Example 134, 2-(1-((3S,5R)-3,5-dimethylpiperazin-1-yl)butyl)-3-ethyl-7-(3-hydroxyphenyl)quinazolin-4(3H)-one]",< 500 nM,> 500 nM,
"CCCC(c1nc2cc(-c3ccnc(OC)c3)ccc2c(=O)n1CC)N1C[C@@H](C)N[C@@H](C)C1 (stereo partly drawn) [Example 135, 2-(1-((3S,5R)-3,5-dimethylpiperazin-1-yl)butyl)-3-ethyl-7-(2-methoxypyridin-4-yl)quinazolin-4(3H)-one]",< 500 nM,> 500 nM,
"CCCC(c1nc2cc(-c3ccnc(CNC)c3)ccc2c(=O)n1C)N1C[C@@H](C)N[C@@H](C)C1 (stereo partly drawn) [Example 136, 2-(1-((3S,5R)-3,5-dimethylpiperazin-1-yl)butyl)-3-methyl-7-(2-((methylamino)methyl)pyridin-4-yl)quinazolin-4(3H)-one]",,,Ki ([1]; read-out: α2δ-1 binding): 500 to 5000 nM; Ki (Human μ-opioid receptor; read-out: μ-binding): > 500 nM
"CCCC(c1nc2cc(N3CCCC3)ccc2c(=O)n1CC)N1C[C@@H](C)N[C@@H](C)C1 (stereo partly drawn) [Example 137, 2-(1-((3S,5R)-3,5-Dimethylpiperazin-1-yl)butyl)-3-ethyl-7-(pyrrolidin-1-yl)quinazolin-4(3H)-one]",< 500 nM,> 500 nM,
"CCCC(c1nc2ccc(N3CCCC3)cc2c(=O)n1CC)N1C[C@@H](C)N[C@@H](C)C1 (stereo partly drawn) [Example 138, 2-(1-((3S,5R)-3,5-dimethylpiperazin-1-yl)butyl)-3-ethyl-6-(pyrrolidin-1-yl)quinazolin-4(3H)-one]",< 500 nM,> 500 nM,
"CCCC(c1nc2ccc(N3CCC(N(C)C)CC3)cc2c(=O)n1CC)N1C[C@@H](C)N[C@@H](C)C1 (stereo partly drawn) [Example 139, 6-(4-(dimethylamino)piperidin-1-yl)-2-(1-((3S,5R)-3,5-dimethylpiperazin-1-yl)butyl)-3-ethylquinazolin-4(3H)-one]",< 500 nM,> 500 nM,
"CCCC(c1nc2ccc(N3CCC(NC)CC3)cc2c(=O)n1CC)N1C[C@@H](C)N[C@@H](C)C1 (stereo partly drawn) [Example 140, 2-(1-((3S,5R)-3,5-dimethylpiperazin-1-yl)butyl)-3-ethyl-6-(4-(methylamino)piperidin-1-yl)quinazolin-4(3H)-one]",< 500 nM,> 500 nM,
"CCCC(c1nc2ccc(N3CCC(N)CC3)cc2c(=O)n1CC)N1C[C@@H](C)N[C@@H](C)C1 (stereo partly drawn) [Example 141, 6-(4-aminopiperidin-1-yl)-2-(1-((3S,5R)-3,5-dimethylpiperazin-1-yl)butyl)-3-ethylquinazolin-4(3H)-one]",< 500 nM,> 500 nM,
"CCCC(c1nc2ccc(N(C)C3CCN(C)CC3)cc2c(=O)n1CC)N1C[C@@H](C)N[C@@H](C)C1 (stereo partly drawn) [Example 143, 2-(1-((3S,5R)-3,5-dimethylpiperazin-1-yl)butyl)-3-ethyl-6-(methyl(1-methylpiperidin-4-yl)amino)quinazolin-4(3H)-one]",< 500 nM,,"Ki (Human μ-opioid receptor; binding to μ-opioid receptor expressed as Ki, + also Ki>500 nM or inhibition between 1% and 50%, read-out: μ-binding): > 500 nM"
"CCCC(c1nc2ccc(N(C)Cc3ccccc3)cc2c(=O)n1CC)N1C[C@@H](C)N[C@@H](C)C1 (stereo partly drawn) [Example 144, 6-(benzyl(methyl)amino)-2-(1-((3S,5R)-3,5-dimethylpiperazin-1-yl)butyl)-3-ethylquinazolin-4(3H)-one]",< 500 nM,> 500 nM,
"CCCC(c1nc2ccc(NCCNC)cc2c(=O)n1CC)N1C[C@@H](C)N[C@@H](C)C1 (stereo partly drawn) [Example 145, 2-(1-((3S,5R)-3,5-dimethylpiperazin-1-yl)butyl)-3-ethyl-6-((2-(methylamino)ethyl)amino)quinazolin-4(3H)-one]",< 500 nM,> 500 nM,
"CCCC(c1nc2ccc(N(C)CCNC)cc2c(=O)n1CC)N1C[C@@H](C)N[C@@H](C)C1 (stereo partly drawn) [Example 146, 2-(1-((3S,5R)-3,5-dimethylpiperazin-1-yl)butyl)-3-ethyl-6-(methyl(2-(methylamino)ethyl)amino)quinazolin-4(3H)-one]",< 500 nM,> 500 nM,
"CCCC(c1nc2cc(NCCNC)ccc2c(=O)n1CC)N1C[C@@H](C)N[C@@H](C)C1 (stereo partly drawn) [Example 147, 2-(1-((3S,5R)-3,5-dimethylpiperazin-1-yl)butyl)-3-ethyl-7-((2-(methylamino)ethyl)amino)quinazolin-4(3H)-one]",< 500 nM,> 500 nM,
"CCCC(c1nc2ccc(N3CC=C(c4ccccc4O)CC3)cc2c(=O)n1CC)N1C[C@@H](C)N[C@@H](C)C1 (stereo partly drawn) [Example 148, 2-(1-((3S,5R)-3,5-dimethylpiperazin-1-yl)butyl)-3-ethyl-6-(4-(2-hydroxyphenyl)-5,6-dihydropyridin-1(2H)-yl)quinazolin-4(3H)-one]",< 500 nM,> 500 nM,
"CCCC(c1nc2ccc(N3CCC(N(C)Cc4ccccc4)CC3)cc2c(=O)n1CC)N1C[C@@H](C)N[C@@H](C)C1 (stereo partly drawn) [Example 151, 6-(4-(benzyl(methyl)amino)piperidin-1-yl)-2-(1-((3S,5R)-3,5-dimethylpiperazin-1-yl)butyl)-3-ethylquinazolin-4(3H)-one]",< 500 nM,> 500 nM,
"CCC[C@@H](c1nc2ccc(N3C[C@H](C)OC4(CCNCC4)C3)cc2c(=O)n1CC)N1C[C@@H](C)N[C@@H](C)C1 [Example 152, 2-((S)-1-((3S,5R)-3,5-Dimethylpiperazin-1-yl)butyl)-3-ethyl-6-((S)-2-methyl-1-oxa-4,9-diazaspiro[5.5]undecan-4-yl)quinazolin-4(3H)-one]",,,Ki ([1]; read-out: α2δ-1 binding): 500 to 5000 nM; Ki (Human μ-opioid receptor; read-out: μ-binding): > 500 nM
"CCC[C@H](c1nc2ccc(N3C[C@H](C)OC4(CCNCC4)C3)cc2c(=O)n1CC)N1C[C@@H](C)N[C@@H](C)C1 [Example 153, 2-((R)-1-((3S,5R)-3,5-dimethylpiperazin-1-yl)butyl)-3-ethyl-6-((S)-2-methyl-1-oxa-4,9-diazaspiro[5.5]undecan-4-yl)quinazolin-4(3H)-one]",,,Ki ([1]; read-out: α2δ-1 binding): 500 to 5000 nM; Ki (Human μ-opioid receptor; read-out: μ-binding): > 500 nM
"CCC[C@@H](c1nc2ccc(N3C[C@@H](C)OC4(CCN(CCc5ccccc5)CC4)C3)cc2c(=O)n1CC)N1C[C@@H](C)N[C@@H](C)C1 [Example 154, 2-((S)-1-((3S,5R)-3,5-Dimethylpiperazin-1-yl)butyl)-3-ethyl-6-((R)-2-methyl-9-phenethyl-1-oxa-4,9-diazaspiro[5.5]undecan-4-yl)quinazolin-4(3H)-one]",< 500 nM,> 500 nM,
"CCC[C@@H](c1nc2ccc(N3C[C@H](C)OC4(CCN(CCc5ccccc5)CC4)C3)cc2c(=O)n1CC)N1C[C@@H](C)N[C@@H](C)C1 [Example 155, 2-((S)-1-((3S,5R)-3,5-dimethylpiperazin-1-yl)butyl)-3-ethyl-6-((S)-2-methyl-9-phenethyl-1-oxa-4,9-diazaspiro[5.5]undecan-4-yl)quinazolin-4(3H)-one]",< 500 nM,> 500 nM,
"CCC[C@H](c1nc2ccc(N3C[C@H](C)OC4(CCN(CCc5ccccc5)CC4)C3)cc2c(=O)n1CC)N1C[C@@H](C)N[C@@H](C)C1 [Example 156, 2-((R)-1-((3S,5R)-3,5-dimethylpiperazin-1-yl)butyl)-3-ethyl-6-((S)-2-methyl-9-phenethyl-1-oxa-4,9-diazaspiro[5.5]undecan-4-yl)quinazolin-4(3H)-one]",,> 500 nM,"Ki [1, 2]: 500 to 5000 nM"
"CCC[C@H](c1nc2ccc(N3C[C@@H](C)OC4(CCN(CCc5ccccc5)CC4)C3)cc2c(=O)n1CC)N1C[C@@H](C)N[C@@H](C)C1 [Example 157, 2-((R)-1-((3S,5R)-3,5-dimethylpiperazin-1-yl)butyl)-3-ethyl-6-((R)-2-methyl-9-phenethyl-1-oxa-4,9-diazaspiro[5.5]undecan-4-yl)quinazolin-4(3H)-one]",,> 500 nM,"Ki [1, 2]: 500 to 5000 nM"
"CCC[C@@H](c1nc2ccc(NCC[C@@]3(c4ccccn4)CCOC4(CCCC4)C3)cc2c(=O)n1CC)N1C[C@@H](C)N[C@@H](C)C1 [Example 158, 2-((S)-1-((3S,5R)-3,5-Dimethylpiperazin-1-yl)butyl)-3-ethyl-6-((2-((R)-9-(pyridin-2-yl)-6-oxaspiro[4.5]decan-9-yl)ethyl)amino)quinazolin-4(3H)-one]",< 500 nM,> 500 nM,
